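In this assay, cells in 96-well plates receive the compound at five concentrations for 48 hours. Endpoints are linearly interpolated between the surrounding concentrations. GI50 marks 50% less growth. The concentration for full growth arrest is given as TGI.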

Common to all, as to test: NCI anticancer screen, dose series, 48 h
The subject of test [1] is 786-0 renal.
The subject of test [2] is DU-145 prostate.
Test [3] has as its system LOX IMVI melanoma.
The subject of test [4] is MALME-3M melanoma.
Test [5] has as its system NCI-H23 lung.
Test [6] deals with NCI-H522 lung.
The subject of test [7] is OVCAR-4 ovarian.
The subject of test [8] is SK-MEL-28 melanoma.
The subject of test [9] is SK-MEL-5 melanoma.
The subject of test [10] is UACC-62 melanoma.

Take `CN1CCN(Cc2ccc(NC(=O)c3cncc(C#Cc4cnc(N)c5ccccc45)c3)cc2C(F)(F)F)CC1`: the GI50 was 0.423 µM in test [1]; 0.213 µM in [2]; 0.387 µM in test [3]; 0.315 µM in test [4]; 0.41 µM in [5]; 0.367 µM in test [6]. Also, the GI50 in test [7] was 0.117 µM; in [8], 0.513 µM; in [9], 0.537 µM; in [10], 0.587 µM. Moreover, the TGI in test [1] came to 0.89 µM; in [2], 0.678 µM; in [3], 0.837 µM; in test [4], 0.774 µM; in [5], 0.963 µM; in test [6] it was 0.967 µM. Also, the TGI in test [7] is 0.738 µM; in test [8], 0.988 µM; in test [9] it was 0.994 µM; in test [10], 1.16 µM.
In the case of `CN=C1NC(=O)/C(=C/c2ccc3ncccc3c2)S1`, the GI50 was 10.7 µM in test [1]; 5.78 µM in test [2]; 6.74 µM in test [3]; 16 µM in test [4]; 8.38 µM in test [5]; 3.28 µM in test [6]. Further, the GI50 is 10.2 µM in [7], 10.5 µM in test [8], 7.44 µM in test [9] and 8.31 µM in test [10]. The TGI in test [1], in test [2], in test [3], in [4], in test [5] and in test [6] was more than 25 µM throughout. Further, the TGI in test [7] was more than 25 µM; in test [8] it was more than 25 µM; in [9] it was more than 20.1 µM; in test [10], more than 25 µM.
As for `O=C(Cc1ccc(/C=C/C(=O)c2ncc[nH]2)cc1)Nc1ccc(Cl)cc1`, the GI50 was 1.13 µM in test [1]; 1.7 µM in test [2]; 0.87 µM in test [3]; 6.24 µM in test [4]; 2.97 µM in test [5]; 2.6 µM in test [6]. The GI50 in test [7] is 4.11 µM; in test [8] it was 4.81 µM; in test [9], 6.16 µM; in test [10], 3.94 µM. The TGI was determined as 4.77 µM in test [1]; 7.39 µM in test [2]; 3.48 µM in test [3]; 18.5 µM in test [4]; 11.5 µM in test [5]; 7.23 µM in test [6]. Also, the TGI was more than 25 µM in test [7], 11.7 µM in test [8], 17.4 µM in test [9] and 9.48 µM in test [10].
`NS(=O)(=O)c1ccc(-n2nc(-c3ccc(Br)cc3)ccc2=O)cc1`: the GI50 is more than 10 µM in test [1]; more than 10 µM in [2]; more than 10 µM in test [3]; 7.71 µM in test [4]; more than 10 µM in [5]; 2.09 µM in test [6]. The GI50 in test [7], in test [8], in test [9] and in [10] was more than 10 µM throughout. The TGI in test [1], in test [2], in test [3], in [4], in test [5] and in test [6] was more than 10 µM in each case. Also, the TGI in test [7], in test [8], in [9] and in test [10] was more than 10 µM in each case.
Take `CCOC(=O)c1cc(-c2ccc([N+](=O)[O-])cc2)n(-c2ccc(C(=O)O)c(O)c2)c1C`: the GI50 in [1] is 4.84 µM; in test [2], 4.55 µM; in test [3], 2.85 µM; in [4], 2.23 µM; in [5], 3.18 µM; in test [6] it was 6.48 µM. The GI50 was 4.11 µM in test [7], 3.81 µM in test [8], 1.64 µM in [9] and 3.95 µM in test [10]. Also, the TGI in test [1] turned out to be 17.2 µM; in test [2], 17.5 µM; in test [3] it was 11 µM; in test [4] it was 12.5 µM; in test [5], 13.7 µM; in test [6], 23.9 µM. Besides, the TGI turned out to be 19.7 µM in [7], 14.4 µM in [8], 3.43 µM in test [9] and 15.4 µM in [10].
Regarding `OC(c1cccc(C(F)(F)F)c1)c1cnccc1NC1CCCCCC1` (stereo not given), the GI50 in [1] is 1.62 µM; in [2], 2.77 µM; in [3], 1.59 µM; in test [4] it was 1.51 µM; in [5], 1.85 µM; in test [6] it was 1.65 µM. The GI50 in [7] is 1.83 µM; in [8] it was 1.73 µM; in test [9], 1.61 µM; in [10], 1.5 µM. The TGI in test [1] was determined as 3.08 µM; in test [2], 7.53 µM; in test [3], 2.98 µM; in [4], 2.94 µM; in test [5] it was 5.39 µM; in test [6], 3.56 µM. Also, the TGI in test [7] was 6.33 µM; in [8], 3.24 µM; in test [9], 3.04 µM; in test [10] it was 3.06 µM.

Source of the values: PubChem BioAssay (NCI).
